Assay results taken from patent publication US12172996B2, “Methyl {4,6-diamino-2-[5-fluoro-1-(2-fluorobenzyl)-1H-pyrazolo[3,4-b]pyridin-3-yl]pyrimidin-5-yl}carbamate active compound product having improved properties, production and formulation thereof” (Adverio Pharma GmbH, priority 2018, dated 2024).
Blank lines part the entries; values can stand above or below the molecule they belong to.

Columns and labels:
[1] = Determination of particle size distribution (Sympatec Helos, wet dispersion unit); format: physicochemical; settings: 5 min ultrasound; for X10%: diameter below which 10% of the particles lie; for X50%: diameter below which 50% of the particles lie; for X90%: diameter below which 90% of the particles lie
Experimental: Determination of particle size distribution. Determination of particle size distribution is performed using a Sympatec Helos instrument fitted with a wet dispersion unit. To produce the dispersion medium 10-25 mg of the active compound product of the compound of formula (I) (micronized or non-micronized) are predispersed with 10 ml of water/1 drop of Tween 20 in a small vessel. The dispersion is stirred but not shaken to avoid foam formation. The dispersed material is subsequently added to the deionized water (approx. 0.51) in the wet dispersion unit, treated with ultrasound for 5 minutes and measured (10 seconds). The sound exposure time is 5 minutes, a 50 mm aperture is employed (R2, or if measurement range exceeded, R3), the optical density of the suspension is 10-25%, the stirring/pumping speed is set to 50% (40-60%) and evaluation is carried out after 5 minutes of ultrasound.
The three columns X10%, X50% and X90% indicate the diameter below which 10%, 50% and 90% respectively of the particles of the analysed active compound product lie.

[2] = ATR IR of the modification after micronization; format: physicochemical
Description: 16.1 kg of methyl {4,6-diamino-2-[5-fluoro-1-(2-fluorobenzyl)-1H-pyrazolo[3,4-b]pyridin-3-yl]pyrimidin-5-yl}carbamate of formula (I) in the crystalline form of modification I, produced according to example 13, method E of WO 2013/076168, were micronized to afford 15.2 kg. The yield was 94.4%. […] The ATR IR diagram corresponds to the IR spectrum of the compound of formula (I) in modification I according to FIG. 1 of WO 2013/076168.
39.0 kg of methyl {4,6-diamino-2-[5-fluoro-1-(2-fluorobenzyl)-1H-pyrazolo[3,4-b]pyridin-3-yl]pyrimidin-5-yl}carbamate of formula (I) in the crystalline form of modification I, produced by the process according to the invention of example 4, were micronized to afford 36.9 kg. The yield was 94.6%.
The ATR IR diagram corresponds to the IR spectrum of the compound of formula (I) in modification I according to FIG. 1 of WO 2013/076168.

- X10% ([1]; listed as 2-6): 1.0 μm
- X50% ([1]; listed as 2-6): 9.0 μm
- X90% ([1]; listed as 2-6): 34.4 μm
Structure (SMILES): COC(=O)Nc1c(N)nc(-c2nn(Cc3ccccc3F)c3ncc(F)cc23)nc1N [Batch 2-6]

- X10% ([1]; listed as 2-7): 0.6 μm
- X50% ([1]; listed as 2-7): 4.1 μm
- X90% ([1]; listed as 2-7): 23.6 μm
Structure (SMILES): COC(=O)Nc1c(N)nc(-c2nn(Cc3ccccc3F)c3ncc(F)cc23)nc1N [Batch 2-7]

- X10% ([1]; listed as 2-8): 0.6 μm
- X50% ([1]; listed as 2-8): 2.6 μm
- X90% ([1]; listed as 2-8): 13.6 μm
Structure (SMILES): COC(=O)Nc1c(N)nc(-c2nn(Cc3ccccc3F)c3ncc(F)cc23)nc1N [Batch 2-8]

Further lines, the molecule ahead of its results:

Structure (SMILES): COC(=O)Nc1c(N)nc(-c2nn(Cc3ccccc3F)c3ncc(F)cc23)nc1N [Batch 2-2]
- X10% ([1]; listed as 2-2): 0.9 μm
- X50% ([1]; listed as 2-2): 4.2 μm
- X90% ([1]; listed as 2-2): 31.9 μm

Structure (SMILES): COC(=O)Nc1c(N)nc(-c2nn(Cc3ccccc3F)c3ncc(F)cc23)nc1N [Batch 2-5]
- X10% ([1]; listed as 2-5): 1.4 μm
- X50% ([1]; listed as 2-5): 18.7 μm
- X90% ([1]; listed as 2-5): 50.6 μm

Structure (SMILES): COC(=O)Nc1c(N)nc(-c2nn(Cc3ccccc3F)c3ncc(F)cc23)nc1N [Batch 2-1]
- X10% ([1]; listed as 2-1): 1.0 μm
- X50% ([1]; listed as 2-1): 11.1 μm
- X90% ([1]; listed as 2-1): 43.0 μm

Structure (SMILES): COC(=O)Nc1c(N)nc(-c2nn(Cc3ccccc3F)c3ncc(F)cc23)nc1N [Batch 2-3]
- X10% ([1]; listed as 2-3): 1.0 μm
- X50% ([1]; listed as 2-3): 4.3 μm
- X90% ([1]; listed as 2-3): 27.4 μm

Structure (SMILES): COC(=O)Nc1c(N)nc(-c2nn(Cc3ccccc3F)c3ncc(F)cc23)nc1N [compound of formula (I), Methyl {4,6-diamino-2-[5-fluoro-1-(2-fluorobenzyl)-1H-pyrazolo[3,4-b]pyridin-3-yl]pyrimidin-5-yl}carbamate]
- Modification after micronization ([2]; produced according to example 13, method E of WO 2013/076168, 16.1 kg micronized): remained in modification I even after micronization
- Modification after micronization ([2]; produced by the process according to the invention of example 4, 39.0 kg micronized): remained in modification I even after micronization

Structure (SMILES): COC(=O)Nc1c(N)nc(-c2nn(Cc3ccccc3F)c3ncc(F)cc23)nc1N [Batch 2-4]
- X10% ([1]; listed as 2-4): 0.5 μm
- X50% ([1]; listed as 2-4): 1.8 μm
- X90% ([1]; listed as 2-4): 9.5 μm
